Tests used:
Sprague Dawley rats = assay: Porsolt forced swim test; assay type: in vivo; settings: 1 h post-dose, 0.1 mg/kg
Experimental: A non-clinical in vivo pharmacology study (Porsolt assay) was performed to measure antidepressant-like effects. The study allowed for the evaluation of the effects of each compound on the Porsolt forced swim test as assessed by the rats' response (reduced floating time) during a 5-minute swimming test.
Male 2-3 month old Sprague Dawley rats were used (Harlan, Indianapolis, Ind.). Rats were housed in Lucite cages with aspen wood chip bedding, maintained on a 12:12 light:dark cycle (lights on at 5 AM), and given ad libitum access to Purina lab chow (USA) and tap water throughout the study.
The Porsolt forced swim test adapted for use in rats was performed as described by Burgdorf et al., (The long-lasting antidepressant effects of rapastinel (GLYX-13) are associated with a metaplasticity process in the medial prefrontal cortex and hippocampus. Neuroscience 308:202-211, 2015). Animals were placed in a 46 cm tall×20 cm in diameter clear glass tube filled to 30 cm with tap water (23±1° C.) for 15 min on the first day (habituation) and 5 min on the subsequent test day. Animals were tested 1 h or 24 h post-dosing with the test compounds or vehicle control (0.5% sodium carboxymethyl cellulose in 0.9% sterile saline). A subset of compounds tested at 1 h post-dosing was tested again 1 wk post-dosing. Animals received a 15 min habituation session 1 day before the first 5 min test. Water was changed after every other animal. Animals were videotaped, and floating time as defined as the minimal amount of effort required to keep the animals head above water was scored offline by a blinded experimenter with high inter-rater reliability (Pearson's r >0.9).

Plasma stability (Human) = assay type: in vitro ADME; settings: after 60 minutes
Experimental: (§1) Plasma stability of disclosed compounds was investigated. The following table indicates the percent of compound remaining after 60 minutes.

[1] = Microsomal stability (Human); assay type: in vitro ADME; settings: after 60 minutes
Experimental: (§2) Microsomal stability of disclosed compounds was investigated. The following table indicates the percent of compound remaining after 60 minutes.

[2] = Microsomal stability (Rat); assay type: in vitro ADME; settings: after 60 minutes
Experimental: as §2

NMDAR2C = molecular target: T1, NMDAR2C (Homo sapiens, UniProt Q14957); assay: NMDAR agonist assay, [3H]MK-801 binding, NMDAR2C expressing HEK cell membranes; assay type: biochemical; settings: 50 μM glutamate
T1 construct: expressed in transfected cells; host or cells: HEK cells (membrane extract)
Experimental: (§3) Assays were conducted as described by Moskal et al., “GLYX-13: a monoclonal antibody-derived peptide that acts as an N-methyl-D-aspartate receptor modulator,” Neuropharmacology, 49, 1077-87, 2005. These studies were designed to determine if the test compounds act to facilitate NMDAR activation in NMDAR2A, NMDAR2B, NMDAR2C or NMDAR2D expressing HEK cell membranes as measured by increases in [^3H]MK-801 binding.
(§4) In the assay, 300 μg of NMDAR expressing HEK cell membrane extract protein was preincubated for 15 minutes at […] in the presence of saturating concentrations of glutamate (50 μM) and varying concentrations of test compound (1×10^−15M-1×10^−7M), or 1 mM glycine. Following the addition of 0.3 μCi of [3H]MK-801 (22.5 Ci/mmol), reactions were again incubated for 15 minutes at 25° C. (nonequilibrium conditions). Bound and free [3H]MK-801 were separated via rapid filtration using a Brandel apparatus.
(§5) In analyzing the data, the DPM (disintegrations per minute) of [3H]MK-801 remaining on the filter were measured for each concentration of test compound or for 1 mM glycine. The DPM values for each concentration of a ligand (N=2) were averaged. The baseline value was determined from the best fit curve of the DPM values modeled using the GraphPad program and the log(agonist) vs. response (three parameters) algorithm was then subtracted from all points in the dataset. The % maximal [^3H]MK-801 binding was then calculated relative to that of 1 mM glycine: all baseline subtracted DPM values were divided by the average value for 1 mM glycine. The EC50 and % maximal activity were then obtained from the best fit curve of the % maximal [3H]MK-801 binding data modelled using the GraphPad program and the log(agonist) vs. response (three parameters) algorithm.
(§6) The tables below summarize the results for the wild type […] NMDAR2A, NMDAR2B, NMDAR2C, and NMDAR2D, and whether the compound is not an agonist (−), is an agonist (+), or is a strong agonist (++), where column A is based on the % maximal [3H]MK-801 binding relative to 1 mM glycine (−=0; <100%=+; and >100%=++); and column B is based on log EC50 values (0=−; ≥1×10^−9 M (e.g., −8)=+; and <1×10^−9 M (e.g., −10)=++).

NMDAR2A = molecular target: T2, NMDAR2A (Homo sapiens, UniProt Q12879); assay: NMDAR agonist assay, [3H]MK-801 binding, NMDAR2A expressing HEK cell membranes; assay type: biochemical; settings: 50 μM glutamate; for EC50: read-out: NMDAR2A B: log EC50 (converted); for Emax: 0.25 h, read-out: NMDAR2A A: % maximal [3H]MK-801 binding relative to 1 mM glycine
T2 construct: expressed in transfected cells; host or cells: HEK cells (membrane extract)
How it was run: (§7)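 Membranes from HEK cells (300 μg protein) preincubated 15 min with 50 μM glutamate plus compound (1×10^−15–1×10^−7 M) or 1 mM glycine, then with 0.3 μCi [3H]MK-801 for 15 min at 25° C. (nonequilibrium); filter-bound DPM, baseline-subtracted, expressed as % of 1 mM glycine; EC50 and % maximum from three-parameter fit.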

[3] = IV pharmacokinetics in Sprague Dawley rats; assay type: in vivo; settings: Sprague-Dawley, rat, in vivo, iv, 2 mg/kg, normal saline; for Cmax: read-out: Cmax; for Vd: read-out: Vss
Experimental: Sprague Dawley rats were dosed intravenously using a normal saline formulation containing 2 mg/kg of the compounds identified in the below table. The table below summarizes the results of the IV pharmacokinetics.

Plasma stability (Rat) = assay type: in vitro ADME; settings: after 60 minutes
Experimental: as §1

[4] = Oral pharmacokinetics in Sprague Dawley rats (plasma, brain, CSF); assay type: in vivo; settings: rat, 10 mg/kg; for Tmax / AUC(0-t) / bioavailability / Cmax: Sprague-Dawley, po, plasma; for Tmax / AUC(0-t) / Cmax / CSF Cmax / Brain Cmax: per os; for Tmax: read-out: Tmax; for bioavailability: per os 10 mg/kg; for Cmax: read-out: Cmax
Experimental: In another experiment, Sprague Dawley rats were dosed per os (oral gavage) using a normal saline formulation containing 10 mg/kg of the compounds identified in the table below. Plasma, brain, and CSF samples were analyzed at various time points over a 24 hour period. The table below summarizes the results of the oral pharmacokinetics, where the first three values (Tmax, Cmax and AUClast) are plasma values.

NMDAR2D = molecular target: T3, NMDAR2D (Homo sapiens, UniProt O15399); assay: NMDAR agonist assay, [3H]MK-801 binding, NMDAR2D expressing HEK cell membranes; assay type: biochemical; settings: 50 μM glutamate; relative to 1 mM glycine
T3 construct: expressed in transfected cells; host or cells: HEK cells (membrane extract)
Experimental: as §3, §4, §5, §6

NMDAR2B = molecular target: T4, NMDAR2B (Homo sapiens, UniProt Q13224); assay: NMDAR agonist assay, [3H]MK-801 binding, NMDAR2B expressing HEK cell membranes; assay type: biochemical; settings: 50 μM glutamate; for EC50: read-out: NMDAR2B B: log EC50 (converted); for Emax: read-out: NMDAR2B A: % maximal [3H]MK-801 binding relative to 1 mM glycine
T4 construct: expressed in transfected cells; host or cells: HEK cells (membrane extract)
How it was run: as §7

T4 sequence (Q13224 27-1484, species assumed, other chains not shown): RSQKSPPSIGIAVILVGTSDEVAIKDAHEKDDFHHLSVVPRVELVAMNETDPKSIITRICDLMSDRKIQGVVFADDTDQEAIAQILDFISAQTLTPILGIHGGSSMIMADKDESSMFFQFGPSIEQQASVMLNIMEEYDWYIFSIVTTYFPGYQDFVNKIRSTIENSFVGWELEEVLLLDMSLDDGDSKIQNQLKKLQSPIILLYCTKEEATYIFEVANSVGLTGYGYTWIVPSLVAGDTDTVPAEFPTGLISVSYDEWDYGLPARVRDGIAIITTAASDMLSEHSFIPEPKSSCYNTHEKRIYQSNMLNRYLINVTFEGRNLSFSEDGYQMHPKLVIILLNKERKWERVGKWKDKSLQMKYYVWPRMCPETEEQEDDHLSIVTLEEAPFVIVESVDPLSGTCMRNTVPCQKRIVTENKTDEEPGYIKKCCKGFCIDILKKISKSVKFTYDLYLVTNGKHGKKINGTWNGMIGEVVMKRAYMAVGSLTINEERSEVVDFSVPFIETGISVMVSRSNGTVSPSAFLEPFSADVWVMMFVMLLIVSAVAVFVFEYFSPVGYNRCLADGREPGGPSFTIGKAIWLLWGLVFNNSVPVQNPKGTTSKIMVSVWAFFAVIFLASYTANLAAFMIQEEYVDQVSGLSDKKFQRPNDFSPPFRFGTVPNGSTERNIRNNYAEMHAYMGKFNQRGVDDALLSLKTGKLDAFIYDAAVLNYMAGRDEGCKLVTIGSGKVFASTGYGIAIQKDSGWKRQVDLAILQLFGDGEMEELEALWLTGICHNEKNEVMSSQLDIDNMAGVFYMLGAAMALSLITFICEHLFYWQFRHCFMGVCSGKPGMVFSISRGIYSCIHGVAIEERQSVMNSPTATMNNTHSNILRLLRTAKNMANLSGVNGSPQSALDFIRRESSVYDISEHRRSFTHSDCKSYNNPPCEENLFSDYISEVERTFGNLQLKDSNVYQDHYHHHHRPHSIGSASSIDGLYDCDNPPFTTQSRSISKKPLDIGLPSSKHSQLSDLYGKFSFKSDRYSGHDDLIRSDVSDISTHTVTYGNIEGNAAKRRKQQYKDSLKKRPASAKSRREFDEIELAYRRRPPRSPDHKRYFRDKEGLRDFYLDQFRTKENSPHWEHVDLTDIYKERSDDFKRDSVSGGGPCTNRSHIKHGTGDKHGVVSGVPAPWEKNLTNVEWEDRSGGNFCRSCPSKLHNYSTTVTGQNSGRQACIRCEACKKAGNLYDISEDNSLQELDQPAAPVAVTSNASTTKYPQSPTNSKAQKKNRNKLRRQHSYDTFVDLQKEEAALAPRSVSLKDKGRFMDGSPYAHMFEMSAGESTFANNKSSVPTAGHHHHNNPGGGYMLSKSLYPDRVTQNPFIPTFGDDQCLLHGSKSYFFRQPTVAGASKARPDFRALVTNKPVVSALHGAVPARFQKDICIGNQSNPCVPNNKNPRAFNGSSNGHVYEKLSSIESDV
T2 sequence (Q12879 23-1464, species assumed, other chains not shown): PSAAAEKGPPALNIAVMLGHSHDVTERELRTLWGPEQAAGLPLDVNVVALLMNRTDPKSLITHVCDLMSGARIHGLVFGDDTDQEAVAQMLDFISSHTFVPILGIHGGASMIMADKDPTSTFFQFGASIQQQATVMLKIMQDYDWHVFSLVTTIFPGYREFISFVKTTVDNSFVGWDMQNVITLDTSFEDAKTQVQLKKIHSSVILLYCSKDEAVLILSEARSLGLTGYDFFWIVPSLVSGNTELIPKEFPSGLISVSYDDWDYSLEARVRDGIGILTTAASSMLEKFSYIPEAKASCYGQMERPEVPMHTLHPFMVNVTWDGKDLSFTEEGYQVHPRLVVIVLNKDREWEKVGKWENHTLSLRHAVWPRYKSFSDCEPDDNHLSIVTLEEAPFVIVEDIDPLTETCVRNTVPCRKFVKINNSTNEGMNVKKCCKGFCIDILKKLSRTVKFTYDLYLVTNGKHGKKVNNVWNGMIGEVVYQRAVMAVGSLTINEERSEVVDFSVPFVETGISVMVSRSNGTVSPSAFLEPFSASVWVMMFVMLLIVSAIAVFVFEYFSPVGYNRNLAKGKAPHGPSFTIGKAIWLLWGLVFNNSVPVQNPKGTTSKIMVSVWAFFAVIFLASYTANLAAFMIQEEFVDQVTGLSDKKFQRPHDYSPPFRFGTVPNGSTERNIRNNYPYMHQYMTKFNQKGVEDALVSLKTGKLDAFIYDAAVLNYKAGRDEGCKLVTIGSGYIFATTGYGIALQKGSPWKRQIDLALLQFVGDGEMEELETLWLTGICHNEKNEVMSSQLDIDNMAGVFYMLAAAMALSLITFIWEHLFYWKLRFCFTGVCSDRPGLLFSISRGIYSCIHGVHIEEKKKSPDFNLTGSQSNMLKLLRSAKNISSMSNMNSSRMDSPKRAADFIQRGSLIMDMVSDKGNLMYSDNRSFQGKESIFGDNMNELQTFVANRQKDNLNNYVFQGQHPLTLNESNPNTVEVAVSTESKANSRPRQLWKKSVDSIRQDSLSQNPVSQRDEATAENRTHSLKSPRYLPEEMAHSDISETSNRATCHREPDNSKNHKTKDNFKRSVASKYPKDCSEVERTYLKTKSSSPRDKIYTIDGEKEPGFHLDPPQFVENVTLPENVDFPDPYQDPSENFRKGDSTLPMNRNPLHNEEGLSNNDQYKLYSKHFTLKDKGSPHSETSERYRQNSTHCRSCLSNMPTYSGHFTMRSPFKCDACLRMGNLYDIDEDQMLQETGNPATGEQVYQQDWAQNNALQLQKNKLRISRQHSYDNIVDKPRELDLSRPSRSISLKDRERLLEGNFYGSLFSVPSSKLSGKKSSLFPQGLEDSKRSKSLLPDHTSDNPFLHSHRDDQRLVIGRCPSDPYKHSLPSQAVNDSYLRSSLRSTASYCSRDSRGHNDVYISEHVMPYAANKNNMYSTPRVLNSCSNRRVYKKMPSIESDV
T1 sequence (Q14957 20-1233, species assumed, other chains not shown): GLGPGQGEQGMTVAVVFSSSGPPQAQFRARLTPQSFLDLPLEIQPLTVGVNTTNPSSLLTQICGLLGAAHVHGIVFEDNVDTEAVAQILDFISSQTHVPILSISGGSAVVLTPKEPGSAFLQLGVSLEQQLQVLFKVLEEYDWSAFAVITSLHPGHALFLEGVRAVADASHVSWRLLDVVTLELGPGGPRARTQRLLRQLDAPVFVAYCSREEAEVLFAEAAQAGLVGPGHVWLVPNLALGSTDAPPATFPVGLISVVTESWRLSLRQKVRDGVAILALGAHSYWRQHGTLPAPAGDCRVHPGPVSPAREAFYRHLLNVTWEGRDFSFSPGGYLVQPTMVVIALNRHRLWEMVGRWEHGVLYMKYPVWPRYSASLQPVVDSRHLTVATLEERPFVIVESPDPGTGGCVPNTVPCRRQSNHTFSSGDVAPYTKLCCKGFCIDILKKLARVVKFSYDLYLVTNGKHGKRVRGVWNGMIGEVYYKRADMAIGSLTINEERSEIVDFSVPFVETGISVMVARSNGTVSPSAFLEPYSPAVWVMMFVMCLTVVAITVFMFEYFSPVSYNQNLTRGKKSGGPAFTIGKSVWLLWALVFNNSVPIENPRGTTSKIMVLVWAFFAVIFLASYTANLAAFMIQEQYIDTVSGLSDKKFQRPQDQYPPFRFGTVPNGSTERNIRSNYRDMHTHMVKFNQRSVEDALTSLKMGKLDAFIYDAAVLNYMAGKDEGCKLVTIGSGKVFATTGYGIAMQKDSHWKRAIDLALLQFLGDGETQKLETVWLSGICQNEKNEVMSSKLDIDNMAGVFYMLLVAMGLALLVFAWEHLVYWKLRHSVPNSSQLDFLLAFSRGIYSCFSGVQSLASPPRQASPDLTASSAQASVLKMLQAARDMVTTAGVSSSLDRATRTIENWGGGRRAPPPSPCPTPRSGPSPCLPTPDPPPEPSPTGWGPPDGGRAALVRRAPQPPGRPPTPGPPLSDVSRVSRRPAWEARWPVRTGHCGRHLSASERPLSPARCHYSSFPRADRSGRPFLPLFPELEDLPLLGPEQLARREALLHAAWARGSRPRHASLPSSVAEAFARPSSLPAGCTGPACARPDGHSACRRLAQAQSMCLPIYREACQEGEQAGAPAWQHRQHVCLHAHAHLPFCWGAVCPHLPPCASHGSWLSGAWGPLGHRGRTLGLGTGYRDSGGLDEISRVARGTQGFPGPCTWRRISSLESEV

| Structure (SMILES) | Plasma (Human): percent of compound remaining (Plasma stability (Human)) | Microsomal (Human): percent of compound remaining [1] | Microsomal (Rat): percent of compound remaining [2] | EC50 (NMDAR2A) | AUC(0-t) [3] | clearance [3] | half-life [3] | Cmax [3] | Vd [3] | Plasma (Rat): percent of compound remaining (Plasma stability (Rat)) | Tmax [4] | AUC(0-t) [4] | bioavailability [4] | Cmax [4] | CSF Cmax [4] | Brain Cmax [4] | EC50 (NMDAR2B) | % reduction in float time (Sprague Dawley rats) | Significance vs. vehicle (Sprague Dawley rats) | Emax (NMDAR2A; relative to 1 mM glycine) | also measured |
| --- | --- | --- | --- | --- | --- | --- | --- | --- | --- | --- | --- | --- | --- | --- | --- | --- | --- | --- | --- | --- | --- |
| O=C1NCCCC[C@]12CCCN2 [AU-1, (S)-1,7-diazaspiro[4.6]undecan-6-one] | 100% | 100% | 91% | ≥ 1 nM | 1.84 µg·h/mL | 1.07 L/h/kg | 1.41 h | 1.62 µg/mL | 1.63 L/kg | 100% | 1 h | 6.96 µg·h/mL | 75% | 2.44 µg/mL | 0.19926 µg/mL | 0.5147 µg/mL | < 1 nM | 86% | Yes | < 100% | EC50 (NMDAR2C; read-out: NMDAR2C B: log EC50 (converted)): < 1 nM; NMDAR2C A: % maximal [3H]MK-801 binding relative to 1 mM glycine (NMDAR2C; relative to 1 mM glycine): ++ (>100%=++); NMDAR2D A: % maximal [3H]MK-801 binding relative to 1 mM glycine (NMDAR2D): 0%; Emax (NMDAR2B; relative to 1 mM glycine): < 100% |
| CC(=O)N1CCCC12CC=CCNC2=O (single isomer, unassigned) [GG-2, 1-acetyl-1,7-diazaspiro[4.6]undec-9-en-6-one] | 99% | 88% | 106% | < 1 nM | 2.55 µg·h/mL | 0.788 L/h/kg | 0.54 h | 3.42 µg/mL | 0.58 L/kg | 101% | 0.25 h | 19.6 µg·h/mL | 100% | 9.2 µg/mL | 2.27194 µg/mL | 1.68969 µg/mL | < 1 nM | 4% | No |  |  |
| O=C1NCCCC12CCCCN2 (single isomer, unassigned) [AX, 1,8-diazaspiro[5.5]undecan-7-one] | 105% | 93% | 120% | < 1 nM | 1.36 µg·h/mL | 1.46 L/h/kg | 9.15 h | 1.42 µg/mL | 3.31 L/kg | 99% | 1 h | 6.68 µg·h/mL | 98% | 2.56 µg/mL | 0.34207 µg/mL | 1.54736 µg/mL | ≥ 1 nM |  |  | < 100% | Emax (NMDAR2B; relative to 1 mM glycine): < 100% |

Now from value to compound, other results behind:

| Plasma (Human): percent of compound remaining (Plasma stability (Human)) | Microsomal (Human): percent of compound remaining [1] | Microsomal (Rat): percent of compound remaining [2] | EC50 (NMDAR2A) | AUC(0-t) [3] | clearance [3] | half-life [3] | Cmax [3] | Vd [3] | Plasma (Rat): percent of compound remaining (Plasma stability (Rat)) | Tmax [4] | AUC(0-t) [4] | bioavailability [4] | Cmax [4] | CSF Cmax [4] | Brain Cmax [4] | EC50 (NMDAR2B) | Structure (SMILES) | % reduction in float time (Sprague Dawley rats) | Significance vs. vehicle (Sprague Dawley rats) | Emax (NMDAR2A; relative to 1 mM glycine) | also measured |
| --- | --- | --- | --- | --- | --- | --- | --- | --- | --- | --- | --- | --- | --- | --- | --- | --- | --- | --- | --- | --- | --- |
| 91% | 99% | 98% | < 1 nM | 11.5 µg·h/mL | 0.17 L/h/kg | 4.07 h | 1.63 µg/mL | 1.15 L/kg | 97% | 0.5 h | 30.5 µg·h/mL | 53% | 5.82 µg/mL | 4.43395 µg/mL | 3.55603 µg/mL | < 1 nM | O=C1NCC=CCC12CC(F)(F)CN2 (single isomer, unassigned) [GL-2, 3,3-difluoro-1,7-diazaspiro[4.6]undec-9-en-6-one] | 6% | No |  |  |
| 96% | 94% | 102% | < 1 nM | 1.29 µg·h/mL | 1.54 L/h/kg | 1.77 h | 2.31 µg/mL | 1.11 L/kg | 97% | 0.25 h | 5.48 µg·h/mL | 85% | 5.39 µg/mL | 1.40031 µg/mL | 0.49296 µg/mL | < 1 nM | NC(=O)CN1CCCC12CC=CCNC2=O (single isomer, unassigned) [GQ-2, 2-(6-oxo-1,7-diazaspiro[4.6]undec-9-en-1-yl)acetamide] |  |  |  | NMDAR2A A: % maximal [3H]MK-801 binding relative to 1 mM glycine (NMDAR2A; relative to 1 mM glycine): + (<100%=+); NMDAR2B A: % maximal [3H]MK-801 binding relative to 1 mM glycine (NMDAR2B; relative to 1 mM glycine): + (<100%=+) |
